Test results as given in patent EP2293808B1, “AN SYNTHETIC PEPTIDE CONTAINING BONE FORMING PEPTIDE 1(BFP 1) FOR STIMULATING OSTEOBLAST DIFFERENTIATION, AND PHARMACEUTICAL COMPOSITION COMPRISING THE SYNTHETIC PEPTIDE” (Industry Foundation Of Chonnam National University, priority 2008, dated 2012).
Ends that are not written are not given here.

Test system: cells
Test: MTT assay for cytotoxicity
Type: cell-based
Conditions: within a range of used concentrations, FIG. 3

Sequence: GQGFSYPYKAVFSTQ [BFP 1, Gly-Gln-Gly-Phe-Ser-Tyr-Pro-Tyr-Lys-Ala-Val-Phe-Ser-Thr-Gln]
- cytotoxicity: not toxic to cells
